# Read-outs that look alike come from different tables or passages of the source.
# [1] = RDE (Regimen 1B 120 mg) (n = 9)
smiles,measurement,setting,value
"COc1ncc(-c2nc3c(n2C(C)C)[C@H](c2ccc(Cl)cc2)N(c2cc(Cl)cn(C)c2=O)C3=O)c(OC)n1 [HDM201, (S)-5-(5-Chloro-1-methyl-2-oxo-1,2-dihydro-pyridin-3-yl)-6-(4-chloro-phenyl)-2-(2,4-dimethoxy-pyrimidin-5-yl)-1-isopropyl-5,6-dihydro-1H-pyrrolo[3,4-d]imidazol-4-one]","Nausea, Grade 3/4","1B all subjects, N=20",1 n (%)
same,"Neuralgia, All Grades","1B all subjects, N=20",1 n (%)
same,"Neuralgia, Grade 3/4","1B all subjects, N=20",0 n (%)
same,"Neutropenia, All Grades","1B all subjects, N=20",6 n (%)
same,"Neutropenia, Grade 3/4","1B all subjects, N=20",5 n (%)
same,"Neutrophil Count Decreased, All Grades","1B all subjects, N=20",3 n (%)
same,"Neutrophil Count Decreased, Grade 3/4","1B all subjects, N=20",2 n (%)
same,"Oedema, All Grades","1B all subjects, N=20",1 n (%)
same,"Oedema, Grade 3/4","1B all subjects, N=20",0 n (%)
same,"Oral Candidiasis, All Grades","1B all subjects, N=20",1 n (%)
same,"Oral Candidiasis, Grade 3/4","1B all subjects, N=20",0 n (%)
same,"Platelet Count Decreased, All Grades","1B all subjects, N=20",4 n (%)
same,"Platelet Count Decreased, Grade 3/4","1B all subjects, N=20",0 n (%)
same,"Pruritus, All Grades","1B all subjects, N=20",1 n (%)
same,"Pruritus, Grade 3/4","1B all subjects, N=20",0 n (%)
same,"Thrombocytopenia, All Grades","1B all subjects, N=20",5 n (%)
same,"Thrombocytopenia, Grade 3/4","1B all subjects, N=20",2 n (%)
same,"Total, All Grades","1B all subjects, N=20",19 n (%)
same,"Total, Grade 3/4","1B all subjects, N=20",9 n (%)
same,"Vomiting, All Grades","1B all subjects, N=20",5 n (%)
same,"Vomiting, Grade 3/4","1B all subjects, N=20",0 n (%)
same,"Weight Decreased, All Grades","1B all subjects, N=20",1 n (%)
same,"Weight Decreased, Grade 3/4","1B all subjects, N=20",0 n (%)
same,"White Blood Cell Count Decreased, All Grades","1B all subjects, N=20",3 n (%)
same,"White Blood Cell Count Decreased, Grade 3/4","1B all subjects, N=20",0 n (%)
same,"Anemia, All Grades",All Regimens (N = 85),25 (29) n (%)
same,"Anemia, Grade 3/4",All Regimens (N = 85),10 n (%)
same,"Decreased Appetite, All Grades",All Regimens (N = 85),19 (22) n (%)
same,"Decreased Appetite, Grade 3/4",All Regimens (N = 85),2 n (%)
same,"Diarrhea, All Grades",All Regimens (N = 85),13 (15) n (%)
same,"Diarrhea, Grade 3/4",All Regimens (N = 85),0 n (%)
same,"Fatigue, All Grades",All Regimens (N = 85),19 (22) n (%)
same,"Fatigue, Grade 3/4",All Regimens (N = 85),2 n (%)
same,"Leukopenia, All Grades",All Regimens (N = 85),12 (14) n (%)
same,"Leukopenia, Grade 3/4",All Regimens (N = 85),8 n (%)
same,"Nausea, All Grades",All Regimens (N = 85),44 (52) n (%)
same,"Nausea, Grade 3/4",All Regimens (N = 85),1 n (%)
same,"Neutropenia, All Grades",All Regimens (N = 85),18 (21) n (%)
same,"Neutropenia, Grade 3/4",All Regimens (N = 85),15 n (%)
same,"Platelet Count Decreased, All Grades",All Regimens (N = 85),15 (18) n (%)
same,"Platelet Count Decreased, Grade 3/4",All Regimens (N = 85),7 n (%)
same,"Thrombocytopenia, All Grades",All Regimens (N = 85),27 (32) n (%)
same,"Thrombocytopenia, Grade 3/4",All Regimens (N = 85),14 n (%)
same,"Vomiting, All Grades",All Regimens (N = 85),19 (22) n (%)
same,"Vomiting, Grade 3/4",All Regimens (N = 85),0 n (%)
same,"White blood cell count decrease, All Grades",All Regimens (N = 85),11 (13) n (%)
same,"White blood cell count decrease, Grade 3/4",All Regimens (N = 85),3 n (%)
same,"Anemia, All Grades",[1],2 (22.2) n(%)
same,"Anemia, G3/4",[1],0 n(%)
same,"Leukopenia/white blood cell count decreased, All Grades",[1],3 (33.3) n(%)
same,"Leukopenia/white blood cell count decreased, G3/4",[1],0 n(%)
same,"Neutropenia/neutrophil count decreased, All Grades",[1],2 (22.2) n(%)
same,"Neutropenia/neutrophil count decreased, G3/4",[1],2 (22.2) n(%)
same,"Thrombocytopenia/platelet count decreased, All Grades",[1],4 (44.4) n(%)
same,"Thrombocytopenia/platelet count decreased, G3/4",[1],0 n(%)
same,"Anemia, All Grades",Regimen 1A (n = 26),10 (38.5) n(%)
same,"Anemia, G3/4",Regimen 1A (n = 26),3 (11.5) n(%)
same,"Leukopenia/white blood cell count decreased, All Grades",Regimen 1A (n = 26),9 (34.6) n(%)
same,"Leukopenia/white blood cell count decreased, G3/4",Regimen 1A (n = 26),5 (19.2) n(%)
same,"Neutropenia/neutrophil count decreased, All Grades",Regimen 1A (n = 26),9 (34.6) n(%)
same,"Neutropenia/neutrophil count decreased, G3/4",Regimen 1A (n = 26),8 (30.7) n(%)
same,"Thrombocytopenia/platelet count decreased, All Grades",Regimen 1A (n = 26),12 (46.2) n(%)
same,"Thrombocytopenia/platelet count decreased, G3/4",Regimen 1A (n = 26),8 (30.8) n(%)
same,"Anemia, All Grades",Regimen 1B (n = 20),5 (25.0) n(%)
same,"Anemia, G3/4",Regimen 1B (n = 20),0 n(%)
same,"Leukopenia/white blood cell count decreased, All Grades",Regimen 1B (n = 20),5 (25.0) n(%)
same,"Leukopenia/white blood cell count decreased, G3/4",Regimen 1B (n = 20),1 (5.0) n(%)
same,"Neutropenia/neutrophil count decreased, All Grades",Regimen 1B (n = 20),8 (40.0) n(%)
same,"Neutropenia/neutrophil count decreased, G3/4",Regimen 1B (n = 20),6 (30.0) n(%)
same,"Thrombocytopenia/platelet count decreased, All Grades",Regimen 1B (n = 20),9 (45.0) n(%)
same,"Thrombocytopenia/platelet count decreased, G3/4",Regimen 1B (n = 20),2 (10.0) n(%)
same,"Anemia, All Grades",Regimen 2A (n = 20),6 (30.0) n(%)
same,"Anemia, G3/4",Regimen 2A (n = 20),4 (20.0) n(%)
same,"Leukopenia/white blood cell count decreased, All Grades",Regimen 2A (n = 20),4 (20.0) n(%)
same,"Leukopenia/white blood cell count decreased, G3/4",Regimen 2A (n = 20),3 (15.0) n(%)
same,"Neutropenia/neutrophil count decreased, All Grades",Regimen 2A (n = 20),5 (25.0) n(%)
same,"Neutropenia/neutrophil count decreased, G3/4",Regimen 2A (n = 20),4 (20.0) n(%)
same,"Thrombocytopenia/platelet count decreased, All Grades",Regimen 2A (n = 20),10 (50.0) n(%)
same,"Thrombocytopenia/platelet count decreased, G3/4",Regimen 2A (n = 20),7 (35.0) n(%)
same,"Anemia, All Grades",Regimen 2C (n = 19),4 (21.1) n(%)
same,"Anemia, G3/4",Regimen 2C (n = 19),3 (15.8) n(%)
same,"Leukopenia/white blood cell count decreased, All Grades",Regimen 2C (n = 19),2 (10.5) n(%)
same,"Leukopenia/white blood cell count decreased, G3/4",Regimen 2C (n = 19),1 (5.3) n(%)
same,"Neutropenia/neutrophil count decreased, All Grades",Regimen 2C (n = 19),3 (15.8) n(%)
same,"Neutropenia/neutrophil count decreased, G3/4",Regimen 2C (n = 19),2 (10.5) n(%)
same,"Thrombocytopenia/platelet count decreased, All Grades",Regimen 2C (n = 19),8 (42.1) n(%)
same,"Thrombocytopenia/platelet count decreased, G3/4",Regimen 2C (n = 19),3 (15.8) n(%)
same,"nausea, all grade, patients","all 4 regimens, 44/85",52%
same,"Grade 3/4 hematological toxicities suspected to be study-drug related, patients",all treatment regimens,≤ 35%
same,overall incidence of grade 3/4 thrombocytopenia compared across the 4 regimens,regimen 1B,lowest
same,dose interruptions or discontinuations due to thrombocytopenia,regimen 1B 120 mg,no dose interruptions or discontinuations
same,grade 3/4 neutropenia,regimen 1B 120 mg,2 out of 9
same,non-hematologic dose limiting toxicities or grade 3/4 AEs,regimen 1B 120 mg,no non-hematologic dose limiting toxicities or grade 3/4 AEs
same,platelet transfusions required,regimen 1B 120 mg,no patients required platelet transfusions
same,time to first occurrence of G4 thrombocytopenia,regimen 1B 150 mg,> 100 days
same,therapeutic index among the 4 dosing regimens,regimen 1B (d1 and d8 of 4 w cycle),most favorable therapeutic index
same,"lipase increase, CTCAE grade 3/4, patients","regimen 1B, 20 patients",15%
same,"nausea, all grades, patients","regimen 1B, 20 patients",60.0%
same,"neutropenia/neutrophil count decreased, CTCAE grade 3/4, patients","regimen 1B, 20 patients",30.0%
same,"neutropenia/neutrophil count decreased, all grades, patients","regimen 1B, 20 patients",40.0%
same,patients with at least one CTCAE grade 3/4 AE suspected to be treatment-related,"regimen 1B, 20 patients",45.0%
same,"thrombocytopenia/platelet count decrease, CTCAE grade 3/4, patients","regimen 1B, 20 patients",10.0%
same,"thrombocytopenia/platelet count decreased, all grades, patients","regimen 1B, 20 patients",45.0%
same,"vomiting, all grades, patients","regimen 1B, 20 patients",25.0%
